This is an account of results in PMC8041777, “Protein kinase A controls the hexosamine pathway by tuning the feedback inhibition of GFAT-1” (Nature Communications, 2021).

SMILES strings stand for the structures.

The assay has as its target T1, GFAT-1 (human GFAT-1 isoform 2, hGFAT1) (Homo sapiens, UniProt Q06210).
T1 construct: gene GFPT1; full length, internal His6-tag between Gly299 and Asp300 (kept), expressed in Sf21 insect cells (MultiBac), Ni-NTA and SEC purified
Nature of the assay: GDH-coupled amidohydrolysis assay (APADH at […] nm). Conditions: 10 mM L-Gln, 6 mM Frc6P, 1 mM APAD, 50 mM KCl, 100 mM potassium phosphate pH 7.5, 37 °C; allosteric feedback inhibitor, isomerase domain site. Type of assay: biochemical.

T1 sequence (Q06210 2-681 isoform Q06210-2): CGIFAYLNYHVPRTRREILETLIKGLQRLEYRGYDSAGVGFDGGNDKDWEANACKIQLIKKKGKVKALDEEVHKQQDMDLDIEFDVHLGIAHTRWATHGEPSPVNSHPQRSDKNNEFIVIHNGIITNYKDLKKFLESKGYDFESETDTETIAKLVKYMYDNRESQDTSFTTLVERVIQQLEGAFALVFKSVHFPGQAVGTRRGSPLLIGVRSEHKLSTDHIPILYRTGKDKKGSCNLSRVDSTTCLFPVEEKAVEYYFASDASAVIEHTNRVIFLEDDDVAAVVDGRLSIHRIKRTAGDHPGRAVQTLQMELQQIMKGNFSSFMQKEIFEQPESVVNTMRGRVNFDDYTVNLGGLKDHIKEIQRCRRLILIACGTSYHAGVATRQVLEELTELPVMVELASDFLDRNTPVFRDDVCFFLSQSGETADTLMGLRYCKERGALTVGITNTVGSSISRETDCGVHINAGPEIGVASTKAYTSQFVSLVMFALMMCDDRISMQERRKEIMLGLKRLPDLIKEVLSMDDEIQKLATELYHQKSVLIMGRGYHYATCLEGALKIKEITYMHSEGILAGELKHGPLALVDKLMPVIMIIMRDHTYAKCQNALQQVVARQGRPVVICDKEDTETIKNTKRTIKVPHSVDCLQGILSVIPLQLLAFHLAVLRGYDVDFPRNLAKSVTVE

Regarding `CC(=O)N[C@H]1[C@@H](OP(=O)(O)OP(=O)(O)OC[C@H]2O[C@@H](n3ccc(=O)[nH]c3=O)[C@H](O)[C@@H]2O)O[C@H](CO)[C@@H](O)[C@@H]1O` [UDP-GlcNAc], the IC50 is on record as 41.4 −3.5/+3.9 µM.
